Measured values published in US8653040B2, “Compositions containing sesamin-class compound(s) and quercetin glycoside(s)” (Suntory Holdings Limited, priority 2007, dated 2014).

Assay: Blood (plasma) concentration of sesamin and episesamin in rats after oral administration of the mixture of sesamin-class compounds alone or simultaneously with a test substance (LC-MS/MS)
Conditions: Example 3, 10 mg/kg sesamin-class compounds plus 200 μmol/kg test flavonoid glycoside in 0.5% CMC suspension
Method: SD (IGS) male rats (7-wk old) were purchased from CHARLES RIVER JAPAN INC. and habituated in the test environment for a week; the animals that were seen to grow normally were selected and subjected to the test. […] After adding an internal standard (UDESMIN; Funakoshi Co., Ltd.) to the samples, solid-phase extraction was performed with Oasis HLB and the resulting solution was concentrated under vacuum, suspended in methanol, passed through a filter, and subjected to LC-MS/MS for quantification of sesamin. The quantities of the sesamin-class compounds were determined from the ratio between their peak area and that of UDESMIN used as the internal standard. […]

αG-hesperidin
bodily absorption amount (AUC) of the sesamin-class compounds relative to the control: 0.71 times
